Tested on: tumors
Experiment: DMBA-induced tumor growth in rats
Conditions: female rats with DMBA-induced tumors; control = saline solution; result in words

**Q.** “Peptide 1-19: peptide 1-19 of HMG-I, commercially available from Santa Cruz Biotechnology, Santa Cruz, CA, USA (MSESSSKSSQPLASKQEKD; UniProt P17096 1-19, looked up, fragment)” was tested. Which “tumor growth in comparison to the control” value did it give?
**A.** clearly slow down the tumor growth
